Test system: soybean cyst nematode (SCN)
Assay: Yield response field trials: soybean seed treated with Pasteuria nishizawae, compared with seed not treated with Pasteuria
Type: in vivo, Heterodera glycines
Settings: for Yield Response for Resistant Varieties / Yield Response for Susceptible Varieties: approx. 1×10^7 spores/seed, percent yield increase vs seeds not treated with Pasteuria, averaged; for Yield Response for Susceptible Varieties: SCN susceptible soybean varieties
Description: Yield Response Experiment
Multiple field trials were conducted across the United States Midwest region. Baseline nematode populations were determined by sampling from 4 untreated plots. Samples were taken (10 cores per plot) at a depth of 6-8 inches (approx. 15.2-20.3 cm). Samples were stored in a cooler until laboratory assays (eggs/100 cc) were performed.
To allow for sufficient viability to assess results properly, both SCN resistant and susceptible varieties were treated with an insecticide and fungicide seed treatment (CRUISERMAXX seed treatment for beans available from Syngenta Crop Protection, LLC including thiamethoxam (22.61%); mefenoxam (1.70%) and fludioxonil (1.12%)). In addition for some test groups Pasteuria nishizawae treatment was applied at a rate of approximately 1×10^7 spores/seed. Percent yield increase was determined by comparing seeds treated with Pasteuria to those not treated with Pasteuria.
The results of 119 separate trials were sorted according to initial SCN pressure at trial location. Yield data were averaged.

Substance: Pasteuria nishizawae
- Yield Response for Resistant Varieties (SCN resistant soybean varieties, SCN pressure 0 eggs/100 cc): 0.3%
- Yield Response for Resistant Varieties (SCN resistant soybean varieties, SCN pressure 1-500 eggs/100 cc): 0.7%
- Yield Response for Resistant Varieties (SCN resistant soybean varieties, SCN pressure 501-1000 eggs/100 cc): 2.6%
- Yield Response for Resistant Varieties (SCN resistant soybean varieties, SCN pressure >1000 eggs/100 cc): 5.2%
- Yield of resistant varieties, result in words (SCN resistant soybean varieties, all pest pressures): showed increase yield over non-Pasteuria treated soybean seed regardless of pest pressure
- Yield Response for Susceptible Varieties (SCN pressure 0 eggs/100 cc): 1.3%
- Yield Response for Susceptible Varieties (SCN pressure 1-500 eggs/100 cc): 1.0%
- Yield Response for Susceptible Varieties (SCN pressure 501-1000 eggs/100 cc): 0.8%
- Yield Response for Susceptible Varieties (SCN pressure >1000 eggs/100 cc): 0.0%
- Yield of varieties with no resistance or tolerance to SCN, result in words (soybean varieties having no resistance or tolerance to SCN, benefit mostly in absence of or with low pest pressure): generally benefitted from treatment with Pasteuria

Reference: patent publication US9420799B2, “Method for controlling nematode pests” (Syngenta Participations AG, priority 2011, dated 2016)
